The target in test [1] is T1, human recombinant adrenergic α1D receptor (Homo sapiens, UniProt P25100).
T1 construct: expressed in transfected cells; host or cells: HEK-293
T1 sequence (P25100 1-572): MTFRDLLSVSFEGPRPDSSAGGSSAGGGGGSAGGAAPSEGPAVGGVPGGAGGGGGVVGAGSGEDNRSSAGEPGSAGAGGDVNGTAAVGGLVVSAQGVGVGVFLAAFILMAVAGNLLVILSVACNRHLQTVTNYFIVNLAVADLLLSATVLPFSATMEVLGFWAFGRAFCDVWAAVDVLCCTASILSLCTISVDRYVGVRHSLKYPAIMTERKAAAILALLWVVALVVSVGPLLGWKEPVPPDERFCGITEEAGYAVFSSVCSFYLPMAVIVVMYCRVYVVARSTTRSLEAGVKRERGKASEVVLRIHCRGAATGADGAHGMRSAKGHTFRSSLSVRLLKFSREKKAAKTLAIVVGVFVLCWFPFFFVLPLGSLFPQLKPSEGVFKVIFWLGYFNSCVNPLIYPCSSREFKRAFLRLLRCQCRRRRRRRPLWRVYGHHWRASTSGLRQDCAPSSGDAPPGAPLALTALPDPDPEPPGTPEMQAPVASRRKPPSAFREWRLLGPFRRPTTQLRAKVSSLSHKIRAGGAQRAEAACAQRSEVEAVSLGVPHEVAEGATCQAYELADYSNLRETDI
Description: Radioligand binding, adrenergic α1D receptor ([3H]Prazosin). The conditions noted are these: 0.1 μM compound; HEK-293 cells; 0.6 nM [3H]Prazosin; read-out: Percentage inhibition of ligand binding, Adrenergic α1D. On the procedure:
Compounds were incubated with 0.6 nM [3H]Prazosin for 60 min at 25° C. Non-specific binding was estimated in the presence of 10 μM phentolamine. Receptor proteins were filtered and washed, the filters were then counted to determine [3H]Prazosin specifically bound. Compounds were screened at 1 μM or lower, using 1% DMSO as vehicle. Biochemical assay results are presented as the percent inhibition of specific binding in Table 2.

Test [2] deals with T2, rat adrenergic α1B receptor (Rattus norvegicus, UniProt P15823).
T2 construct: rat adrenergic α1B receptor obtained from Wistar Rat liver; from tissue; host or cells: Wistar rat liver
T2 sequence (P15823 1-515): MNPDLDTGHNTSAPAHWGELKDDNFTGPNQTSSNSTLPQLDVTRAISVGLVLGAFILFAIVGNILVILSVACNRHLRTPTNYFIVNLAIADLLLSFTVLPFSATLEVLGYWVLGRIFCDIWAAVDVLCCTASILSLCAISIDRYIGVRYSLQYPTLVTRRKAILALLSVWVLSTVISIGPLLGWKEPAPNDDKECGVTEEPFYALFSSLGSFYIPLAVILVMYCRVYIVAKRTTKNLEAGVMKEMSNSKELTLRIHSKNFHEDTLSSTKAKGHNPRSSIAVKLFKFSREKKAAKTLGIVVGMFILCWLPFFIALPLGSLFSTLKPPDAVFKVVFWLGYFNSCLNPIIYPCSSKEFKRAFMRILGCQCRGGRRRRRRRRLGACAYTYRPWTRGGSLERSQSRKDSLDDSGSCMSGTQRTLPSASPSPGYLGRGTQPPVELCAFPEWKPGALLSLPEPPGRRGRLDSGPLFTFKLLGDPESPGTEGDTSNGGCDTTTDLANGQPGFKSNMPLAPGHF
Description: Radioligand binding, adrenergic α1B receptor ([3H]Prazosin). To be noted: 0.1 μM compound, Wistar rat liver, read-out: Percentage inhibition of ligand binding, Adrenergic α1B. Summed up: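 Wistar rat liver α1B receptor preparation incubated with 0.25 nM [3H]prazosin and compound for 60 min at 25° C in 50 mM Tris-HCl pH 7.4, 0.5 mM EDTA; nonspecific binding defined with 10 μM phentolamine.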

Test [3] concerns the target T3, human recombinant adrenergic α2A receptor (Homo sapiens, UniProt P08913).
T3 construct: expressed in transfected cells; host or cells: insect Sf9 cells
T3 sequence (P08913 1-465): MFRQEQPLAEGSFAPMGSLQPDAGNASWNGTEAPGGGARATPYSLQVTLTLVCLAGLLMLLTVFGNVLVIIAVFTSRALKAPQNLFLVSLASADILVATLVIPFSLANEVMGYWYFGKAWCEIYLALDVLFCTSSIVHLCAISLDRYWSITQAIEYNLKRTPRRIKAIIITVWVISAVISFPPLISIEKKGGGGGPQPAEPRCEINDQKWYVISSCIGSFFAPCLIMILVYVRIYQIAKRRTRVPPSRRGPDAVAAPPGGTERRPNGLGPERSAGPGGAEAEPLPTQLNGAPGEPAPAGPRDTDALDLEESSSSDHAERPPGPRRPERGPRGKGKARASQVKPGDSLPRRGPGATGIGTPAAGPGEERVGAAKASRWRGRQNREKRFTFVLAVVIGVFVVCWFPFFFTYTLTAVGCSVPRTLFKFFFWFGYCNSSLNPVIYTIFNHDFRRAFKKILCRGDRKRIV
Nature of the test: Radioligand binding, adrenergic α2A receptor ([3H]MK-912). The conditions noted are these: 0.1 μM compound; Sf9 cells; 1 nM [3H]MK-912; read-out: Percentage inhibition of ligand binding, Adrenergic α2A. Summed up:
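Percent inhibition of specific [3H]MK-912 (1 nM) binding measured by filtration counting, compounds tested at ≤1 μM in 1% DMSO. Receptor: human α2A from Sf9 cells; incubation 60 min, 25 °C, pH 7.4; 10 μM WB-4101 defined nonspecific binding.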

Test [4] concerns the target T4, human recombinant adrenergic α2B receptor (Homo sapiens, UniProt P18089).
T4 construct: expressed in transfected cells; host or cells: CHO-K1
T4 sequence (P18089 1-450): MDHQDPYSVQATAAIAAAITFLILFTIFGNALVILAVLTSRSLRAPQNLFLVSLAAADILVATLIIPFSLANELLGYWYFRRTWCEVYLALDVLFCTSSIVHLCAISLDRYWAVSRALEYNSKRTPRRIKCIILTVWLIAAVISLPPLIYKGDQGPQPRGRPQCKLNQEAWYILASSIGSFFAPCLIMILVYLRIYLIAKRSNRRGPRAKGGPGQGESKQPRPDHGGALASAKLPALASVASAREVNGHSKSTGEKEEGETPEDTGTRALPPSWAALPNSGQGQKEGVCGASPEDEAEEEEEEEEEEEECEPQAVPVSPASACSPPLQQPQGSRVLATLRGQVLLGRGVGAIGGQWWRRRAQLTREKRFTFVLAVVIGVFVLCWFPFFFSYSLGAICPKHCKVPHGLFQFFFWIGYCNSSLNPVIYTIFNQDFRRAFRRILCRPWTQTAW
Nature of the test: Radioligand binding, adrenergic α2B receptor ([3H]Rauwolscine). The conditions noted are these: 0.1 μM compound, CHO-K1 cells, read-out: Percentage inhibition of ligand binding, Adrenergic α2B. Summed up: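 Percent inhibition of specific [3H]Rauwolscine (2.5 nM) binding, compounds at ≤1 μM, 1% DMSO vehicle, 10 μM prazosin defining nonspecific. Receptor: human α2B expressed in CHO-K1 cells, 60 min incubation at 25 °C in Tris-HCl pH 7.4 buffer (MgCl2, EDTA, BSA); filtered, washed, counted.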

By inhibition is commonly meant the relative decrease from the control value, in per cent.

Take `Cc1ccc2c(c1)c1c(n2-c2cscc2-c2ccc(F)nc2)CCN(C)C1` [Compound 35]: the inhibition at 0.1 µM in test [1] is 68%; in test [2], 67%; in test [3], 84%; in test [4], 95%.
On the same counts, the results for `Cc1ccc2c(c1)c1c(n2-c2ccccc2-c2ccncc2)CCN(C)C1` [Compound 5, 2,8-dimethyl-5-(2-pyridin-4-yl-phenyl)-2,3,4,5-tetrahydro-1H-pyrido[4,3-b]indole] are 45%, 52%, 26% and 78%.
On the same counts, the results for `Cc1ccc2c(c1)c1c(n2-c2ccc(-c3cnc(N(C)C)nc3)cn2)CCN(C)C1` [Compound No. 138, 5-(6-(2,8-dimethyl-3,4-dihydro-1H-pyrido[4,3-b]indol-5(2H)-yl)pyridin-3-yl)-N,N-dimethylpyrimidin-2-amine] are 73%, 73%, 40% and 82%.
On the same counts, the results for `Cc1ccc2c(c1)c1c(n2-c2cccc3ccncc23)CCN(C)C1` [Compound 58, 5-(isoquinolin-8-yl)-2,8-dimethyl-2,3,4,5-tetrahydro-1H-pyrido[4,3-b]indole] are 24%, 22%, 22% and 39%.
For `Cc1ccc2c(c1)c1c(n2-c2ccccc2-c2ccc(F)nc2)CCN(C)C1` [Compound No. 84, 5-(2-(6-fluoropyridin-3-yl)phenyl)-2,8-dimethyl-2,3,4,5-tetrahydro-1H-pyrido[4,3-b]indole], the inhibition at 0.1 µM came out at 58% in test [1], 54% in test [2], 68% in test [3] and 89% in test [4].
Take `Cc1ccc2c(c1)c1c(n2-c2cccc(-c3c(C)noc3C)c2)CCN(C)C1` [Compound No. 65, 4-(3-(2,8-dimethyl-3,4-dihydro-1H-pyrido[4,3-b]indol-5(2H)-yl)phenyl)-3,5-dimethylisoxazole]: the inhibition at 0.1 µM in test [1] turned out to be 1%; in test [2] it was 14%; in test [3], 33%; in test [4], 46%.
On the same counts, the results for `Cc1ccc2c(c1)c1c(n2-c2ccc(-c3ccc(C)nc3)cn2)CCN(C)C1` [Compound No. 156, 2,8-dimethyl-5-(6′-methyl-3,3′-bipyridin-6-yl)-2,3,4,5-tetrahydro-1H-pyrido[4,3-b]indole] are 69%, 78%, 40% and 78%.
As to `Cc1cc(C)c2c(c1)c1c(n2-c2cscc2-c2ccncc2)CCN(C)C1` [Compound No. 149], the inhibition at 0.1 µM in test [1] was 8%; in test [2], 16%; in test [3], -6%; in test [4], 14%.

Source of the values: patent US20140155384A1, “COMPOUNDS AND METHODS OF TREATING DIABETES” (Medivation Technologies, Inc., priority 2011, published 2014).
